The target of data set [1] is P‐gp (Homo sapiens, UniProt P08183). Kind of data set: Clinical DDI study: elagolix effect on digoxin.
Data set [2] concerns P‐gp. The conditions noted are these: cited from earlier work.
The test system of the next data set is OATP1B1. As to conditions: cited from earlier work.
The test system of data set [3] is breast cancer resistance protein (BCRP). The conditions noted are these: cited from earlier work.
The next data set has as its system CYP3A and P‐gp. Kind of data set: Clinical DDI study: ketoconazole effect on elagolix. Format: in vivo, human.
The subject of data set [4] is CYP2C19. The conditions noted are these: cited from earlier work.
The subject of the next data set is OATP1B1/B3 and BCRP. Kind of data set: Clinical DDI study: elagolix and rosuvastatin. Format: in vivo, human. The conditions noted are these: for Increase in rosuvastatin Cmax: first (single) dose of elagolix 300 mg.
The next data set has as its system CYP3A4. The conditions noted are these: cited from earlier work.
The nature of data set [5]: Clinical DDI study: elagolix and sertraline.
Data set [6] concerns CYP2C19. As to conditions: cited from earlier work. This is another data set of the same source.
For data set [7], the system named is CYP3A. Put plainly: Clinical DDI study: elagolix 300 mg twice daily effect on midazolam.
For data set [8] the following is noted: background; cited from earlier work.
The nature of data set [9]: Clinical DDI study: elagolix and fluconazole.
For data set [10] the following is noted: cited from earlier work.
The test system of another data set is OATP1B1, CYP3A and P‐gp. Kind of data set: Clinical DDI study: single and multiple dose rifampin effect on elagolix.
Data set [11] is described as follows: Safety and tolerability in the 9 phase 1 DDI studies. Format: in vivo, human. The conditions noted are these: for Participants reporting 1 or more TEAE: ketoconazole study.
Data set [12] relates to CYP3A. Put plainly: Clinical DDI study: elagolix 150 mg once daily effect on midazolam. The conditions noted are these: male participants.
The test system of the next data set is CYP2B6. Put plainly: Clinical DDI study: elagolix effect on bupropion. As to conditions: for Change in AUC values / Increase in Cmax: single dose bupropion after 10 days of elagolix 300 mg twice daily. The class given is in vivo, human.
The mark [13] stands for this setting: either single dose or multiple doses (10 days) of elagolix 200 mg twice daily.
Setting [14] is: multiple doses of rifampin (dosing for 10 days) vs elagolix alone.
Where [15] appears, read: first dose of elagolix 300 mg twice daily, female participants.
The mark [16] stands for this setting: multiple doses of elagolix 300 mg twice daily.

Where “and” joins values, the source holds several entries; their conditions need not be identical. Identical values can stand only once. Entries after “also recorded” stand apart in the source; their conditions may differ.

Chain of P‐gp (Homo sapiens, UniProt P08183) (P08183 whole entry): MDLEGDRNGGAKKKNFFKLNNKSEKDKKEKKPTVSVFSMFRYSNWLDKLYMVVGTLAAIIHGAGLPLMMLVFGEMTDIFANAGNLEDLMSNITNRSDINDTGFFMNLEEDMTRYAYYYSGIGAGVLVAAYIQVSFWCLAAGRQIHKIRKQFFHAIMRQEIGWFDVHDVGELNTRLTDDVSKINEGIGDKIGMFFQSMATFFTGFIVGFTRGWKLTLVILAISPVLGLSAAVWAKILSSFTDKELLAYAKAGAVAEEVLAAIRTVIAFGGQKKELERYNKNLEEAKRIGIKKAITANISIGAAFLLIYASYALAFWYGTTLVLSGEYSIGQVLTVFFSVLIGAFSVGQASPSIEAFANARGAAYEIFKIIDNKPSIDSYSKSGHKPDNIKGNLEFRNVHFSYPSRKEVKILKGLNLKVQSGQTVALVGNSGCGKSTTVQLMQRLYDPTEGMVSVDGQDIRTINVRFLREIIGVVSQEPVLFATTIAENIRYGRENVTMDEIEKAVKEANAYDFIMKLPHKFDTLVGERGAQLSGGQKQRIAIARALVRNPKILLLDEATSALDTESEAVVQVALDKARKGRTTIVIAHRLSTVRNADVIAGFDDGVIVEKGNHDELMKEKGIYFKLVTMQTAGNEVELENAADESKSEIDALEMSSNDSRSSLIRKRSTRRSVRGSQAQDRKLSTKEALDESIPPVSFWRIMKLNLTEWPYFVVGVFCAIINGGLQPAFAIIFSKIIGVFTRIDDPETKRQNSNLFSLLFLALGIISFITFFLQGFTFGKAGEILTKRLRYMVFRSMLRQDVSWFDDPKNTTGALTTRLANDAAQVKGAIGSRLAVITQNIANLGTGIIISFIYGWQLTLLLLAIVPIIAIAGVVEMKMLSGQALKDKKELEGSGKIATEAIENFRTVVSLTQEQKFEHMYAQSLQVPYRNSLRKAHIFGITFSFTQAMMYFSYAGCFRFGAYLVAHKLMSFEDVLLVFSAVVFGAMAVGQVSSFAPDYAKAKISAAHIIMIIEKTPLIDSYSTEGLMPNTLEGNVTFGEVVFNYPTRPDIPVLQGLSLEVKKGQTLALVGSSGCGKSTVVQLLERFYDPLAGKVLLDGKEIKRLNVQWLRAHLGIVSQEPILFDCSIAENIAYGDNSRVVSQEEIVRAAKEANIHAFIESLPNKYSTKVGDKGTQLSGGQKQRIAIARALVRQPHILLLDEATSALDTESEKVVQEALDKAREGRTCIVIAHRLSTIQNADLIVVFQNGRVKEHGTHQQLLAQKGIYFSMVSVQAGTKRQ

With `C[C@H]1O[C@@H](O[C@H]2[C@@H](O)C[C@H](O[C@H]3[C@@H](O)C[C@H](O[C@H]4CC[C@@]5(C)[C@H](CC[C@@H]6[C@@H]5C[C@@H](O)[C@]5(C)[C@@H](C7=CC(=O)OC7)CC[C@]65O)C4)O[C@@H]3C)O[C@@H]2C)C[C@H](O)[C@@H]1O` [digoxin], on P‐gp [1] (setting [13]), the “Increase in digoxin AUC” value is around 30% and the “Increase in digoxin Cmax” value is “approximately 70%”. Also, the “Digoxin t½ alone vs in the presence of elagolix” value at P‐gp [1] (elagolix 200 mg twice daily) is “similar”.

Take `COc1cccc(-c2c(C)n(Cc3c(F)cccc3C(F)(F)F)c(=O)n(C[C@H](NCCCC(=O)O)c3ccccc3)c2=O)c1F` [elagolix, sodium R‐(+)‐4‐{2‐[5‐(2‐fluoro‐3‐methoxyphenyl)‐3‐(2‐fluoro‐6‐[trifluoromethyl]benzyl)‐4 ‐methyl‐2,6‐dioxo‐3,6‐dihydro‐2H‐pyrimidin‐1‐yl]‐1‐phenylethylamino}butyrate]: the “In vitro effect on P‐gp” value in the data set with P‐gp [2] is “inhibitor”. Also, in the data set with OATP1B1, the “In vitro effect on OATP1B1” value was “inhibitor”. For the same compound, the “In vitro effect on BCRP” value in data set [3] is given as “inhibitor”. Besides, the “Classification of elagolix as inhibitor of efflux transporter P‐gp” value at P‐gp [1] (mechanistic clinical studies) is recorded as “weak inhibitor”. The “Classification of elagolix as CYP3A (or P‐gp) substrate” value in the data set on CYP3A and P‐gp (based on ketoconazole study vs FDA criterion (≥5‐fold increase)) is reported as “not considered a sensitive CYP3A substrate”. For the same compound, the “Elagolix half‐life with vs without ketoconazole coadministration” value in the data set on CYP3A and P‐gp (elagolix 150 mg single dose, ketoconazole 400 mg once daily) is on record as “similar”. Also, the “Classification of elagolix as inhibitor of CYP2C19” value in the data set with CYP2C19 [4] is “weak inhibitor”. Also, in the data set on OATP1B1/B3 and BCRP (rosuvastatin 20 mg once daily, elagolix 300 mg twice daily), the “Effect of rosuvastatin on elagolix exposure” value is on record as “no effect”. Also, in the data set on CYP3A4, the “In vitro effect on CYP3A4” value is “inducer” and the “In vitro metabolism (enzyme)” value is listed as “metabolized primarily by the cytochrome P450 (CYP) enzyme CYP3A4”. In addition, the “Effect of sertraline on elagolix plasma exposures (Cmax and AUC)” value in data set [5] (single‐dose 300‐mg elagolix, sertraline 25 mg once daily for 10 days) is on record as “not affected; also recorded: did not affect”. Moreover, the “In vitro effect on CYP2C19” value in the data set with CYP2C19 [6] is on record as “inhibitor”. Also, in the data set on CYP3A [7] (depending on the dose administered (150 mg once daily, 300 mg twice daily), midazolam studies), the “Classification of elagolix as inducer of CYP3A” value is on record as “weak or moderate inducer; also recorded: weak to moderate inducer”. Further, in data set [8], the “Common adverse reactions associated with elagolix” value is “hot flush, headache, and nausea”. Moreover, in data set [9] (10 days of elagolix 300 mg twice daily, single dose of fluconazole 200 mg), the “Increase in elagolix steady‐state Cmax” value is reported as “approximately 30%”. Moreover, in data set [10], the “Excreted unchanged in urine” value is “less than 3%” and the “Plasma exposure of elagolix metabolites relative to the parent compound” value is “less than 3%”. The “Dose proportionality of exposure” value in data set [10] (from 100 to 400 mg twice daily) is “approximately dose proportional”. Besides, in data set [10] (oral), the “Apparent terminal‐phase elimination half‐life (t½)” value is 4 to 6 h and the “Time to mean maximum observed plasma concentration (Tmax)” value was “approximately 1 hour”. The “Increase in elagolix exposures (Cmax and AUC)” value in the data set on OATP1B1, CYP3A and P‐gp (multiple days of rifampin dosing) is reported as at most 2 fold. In the data set with OATP1B1, CYP3A and P‐gp (setting [14]), the “Increase in elagolix AUC” value was ~2 fold and 1.7 fold; the “Increase in elagolix Cmax” value turned out to be 2.0 fold. In addition, the “Increase in elagolix exposures (Cmax and AUC)” value with OATP1B1, CYP3A and P‐gp (single dose of rifampin) was < 6 fold and > 4.4 fold. For the same compound, the “Increase in elagolix Cmax” value with OATP1B1, CYP3A and P‐gp (with a single dose of rifampin 600 mg vs elagolix alone) is recorded as 4.4 fold. Further, in [11] (across all studies), the “Changes in vital sign values, ECG parameters, physical examination findings, laboratory measurements” value was “no clinically significant changes”; the “Most common adverse events assessed as mild and reasonably related to elagolix” value is “hot flush, headache, nausea, and amenorrhea”; the “Severe adverse events (all assessed as not related to elagolix)” value was determined as 3. In addition, the Tolerability result in [11] (elagolix and coadministered drugs across regimens, 144 female and male participants, 9 phase 1 studies) is “generally well tolerated”. Besides, the “Participants reporting 1 or more TEAE” value in data set [11] (elagolix‐alone portion of the test regimen) is “zero”.

Regarding `Cc1ncc2n1-c1ccc(Cl)cc1C(c1ccccc1F)=NC2` [midazolam], the “Decrease in midazolam AUC” value in the data set on CYP3A [12] (multiple doses of elagolix 150 mg once daily) was around 35%. Further, the “Decrease in midazolam AUC” value with CYP3A [12] (single dose of elagolix 150 mg once daily) is on record as “approximately 21%”. Besides, in the data set with CYP3A [7] (setting [15]), the “Increase in midazolam AUC” value is around 27% and the “Increase in midazolam Cmax” value was “approximately 18%”. Besides, the “Decrease in midazolam Cmax” value with CYP3A [7] (multiple doses of elagolix 300 mg twice daily (11 days of dosing), female participants) was “approximately 44%”.

As for `CC(NC(C)(C)C)C(=O)c1cccc(Cl)c1` (centres unmarked) [bupropion], in the data set with CYP2B6 (elagolix 300 mg twice daily), the “Increase in bupropion PK” value is on record as at most 25%. Further, in the data set on CYP2B6, the “Change in AUC values” is listed as at most 9% and the “Increase in Cmax” value is 25%.

Take `CC(C)c1nc(N(C)S(C)(=O)=O)nc(-c2ccc(F)cc2)c1/C=C/[C@@H](O)C[C@@H](O)CC(=O)O` [rosuvastatin]: the “Increase in rosuvastatin Cmax” value is “approximately 67%” in the data set on OATP1B1/B3 and BCRP; 67% with OATP1B1/B3 and BCRP (listed as Rosuvastatin). The “Change in rosuvastatin AUC” value in the data set with OATP1B1/B3 and BCRP (first dose of elagolix 300 mg twice daily) was “no significant change”. Also, the “Change in rosuvastatin Cmax (steady state)” value in the data set with OATP1B1/B3 and BCRP (setting [16]) is “not significantly changed; also recorded: no change”.

Consider `CN[C@H]1CC[C@@H](c2ccc(Cl)c(Cl)c2)c2ccccc21` [sertraline, reference compound], for which, in [5] (abstract summary), the “Changes in exposure on coadministration of elagolix with sertraline” value is recorded as “No clinically significant changes in exposure”. Further, the “Increase in sertraline steady‐state Cmax” value in data set [5] (setting [16]) stood at 34%.

Consider `OC(Cn1cncn1)(Cn1cncn1)c1ccc(F)cc1F` [fluconazole], for which the “Changes in exposure on coadministration of elagolix with fluconazole” value in [9] (abstract summary) is reported as “No clinically significant changes in exposure”. For the same compound, in [9] (elagolix 300 mg twice daily, fluconazole 200 mg single dose), the “Effect of elagolix on fluconazole exposures (Cmax and AUC)” value was “not affected; also recorded: did not affect”.

On to `CC(=O)N1CCN(c2ccc(OCC3COC(Cn4ccnc4)(c4ccc(Cl)cc4Cl)O3)cc2)CC1` (centres unmarked) [ketoconazole, reference compound], for which the “Participants reporting 1 or more TEAE” value in data set [11] (ketoconazole‐alone portion of the test regimen) is recorded as 82%.

In the case of `OCc1ncc2n1-c1ccc(Cl)cc1C(c1ccccc1F)=NC2` [1‐OH‐midazolam, 1-hydroxymidazolam], in the data set with CYP3A [12] (elagolix 150 mg once daily), the “Increase in 1‐OH‐midazolam exposures” value is “up to 11%”.

Consider `C[C@H]1NC(C)(C)CO[C@]1(O)c1cccc(Cl)c1` [OH‐bupropion, hydroxybupropion], for which, in the data set on CYP2B6, the “Change in AUC values” is at most 9% and the “Increase in Cmax” value stood at 32%.

The values above are taken from publication PMC7689813 (Journal of Clinical Pharmacology, 2020).
